Data as given in PubChem BioAssay (NCI).
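Results reflect a 48-hour exposure of cells in 96-well plates to compound at five concentrations. At the GI50, growth is halved. Definition used: TGI = concentration required for complete inhibition of growth.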

Columns and labels:
Assay in all cases: DTP human tumour cell line panel, 48 h
MALME-3M melanoma = system: MALME-3M melanoma
CCRF-CEM leukemia = system: CCRF-CEM leukemia
TK-10 renal = system: TK-10 renal
A549 NSCLC = system: A549 NSCLC
SF-295 CNS = system: SF-295 CNS
MDA-MB-468 breast = system: MDA-MB-468 breast
HOP-92 NSCLC = system: HOP-92 NSCLC
OVCAR-3 ovarian = system: OVCAR-3 ovarian
SK-MEL-28 melanoma = system: SK-MEL-28 melanoma
U251 CNS = system: U251 CNS
RXF 393 renal = system: RXF 393 renal
K-562 leukemia = system: K-562 leukemia
786-0 renal = system: 786-0 renal
MDA-MB-435 = system: MDA-MB-435
SNB-75 CNS = system: SNB-75 CNS
SK-MEL-2 melanoma = system: SK-MEL-2 melanoma
MDA-MB-231 breast = system: MDA-MB-231 breast
HS 578T breast = system: HS 578T breast
M14 melanoma = system: M14 melanoma
NCI-H460 lung = system: NCI-H460 lung
ACHN renal = system: ACHN renal
OVCAR-4 ovarian = system: OVCAR-4 ovarian
KM12 colon = system: KM12 colon
NCI-H226 lung = system: NCI-H226 lung
A498 renal = system: A498 renal
SF-268 CNS = system: SF-268 CNS
CAKI-1 renal = system: CAKI-1 renal
SK-OV-3 ovarian = system: SK-OV-3 ovarian
SF-539 CNS = system: SF-539 CNS
UACC-257 melanoma = system: UACC-257 melanoma
UACC-62 melanoma = system: UACC-62 melanoma
SNB-19 CNS = system: SNB-19 CNS
BT-549 breast = system: BT-549 breast
COLO 205 colon = system: COLO 205 colon
PC-3 prostate = system: PC-3 prostate
SW-620 colon = system: SW-620 colon
IGROV1 ovarian = system: IGROV1 ovarian
HCT-15 colon = system: HCT-15 colon
SN12C renal = system: SN12C renal
HOP-62 NSCLC = system: HOP-62 NSCLC
RPMI-8226 leukemia = system: RPMI-8226 leukemia
SK-MEL-5 melanoma = system: SK-MEL-5 melanoma
OVCAR-8 ovarian = system: OVCAR-8 ovarian
LOX IMVI melanoma = system: LOX IMVI melanoma
T-47D breast = system: T-47D breast
HCC-2998 colon = system: HCC-2998 colon
MCF7 breast = system: MCF7 breast
NCI-H23 lung = system: NCI-H23 lung
DU-145 prostate = system: DU-145 prostate
OVCAR-5 ovarian = system: OVCAR-5 ovarian
EKVX NSCLC = system: EKVX NSCLC
NCI-H522 lung = system: NCI-H522 lung
UO-31 renal = system: UO-31 renal
NCI/ADR-RES ovarian = system: NCI/ADR-RES ovarian
HL-60(TB) leukemia = system: HL-60(TB) leukemia
SR leukemia = system: SR leukemia
HCT-116 colon = system: HCT-116 colon
HT29 colon = system: HT29 colon

Question: N#Cc1c(NC(=O)c2ccc(C(O)(C(F)(F)F)C(F)(F)F)cc2)sc2c1CCC(=O)C2 was tested. Which GI50 (MALME-3M melanoma) did it give?
Answer: 0.641 µM

Question: And the TGI (MALME-3M melanoma)?
Answer: 1.94 µM

Question: And the GI50 (CCRF-CEM leukemia)?
Answer: 0.338 µM

Question: What about the TGI (CCRF-CEM leukemia) of the same compound?
Answer: 7.29 µM

Question: And the GI50 (TK-10 renal)?
Answer: 2.38 µM

Question: And the TGI (TK-10 renal)?
Answer: 8.7 µM

Question: And the GI50 (A549 NSCLC)?
Answer: 2.75 µM

Question: What about the TGI (A549 NSCLC) of the same compound?
Answer: 12.6 µM

Question: And the GI50 (SF-295 CNS)?
Answer: 2.13 µM

Question: And the TGI (SF-295 CNS)?
Answer: 5.24 µM

Question: What about the GI50 (MDA-MB-468 breast) of the same compound?
Answer: 0.6 µM

Question: And the TGI (MDA-MB-468 breast)?
Answer: 1.67 µM

Question: And the GI50 (HOP-92 NSCLC)?
Answer: 0.475 µM

Question: And the TGI (HOP-92 NSCLC)?
Answer: 1.46 µM

Question: What about the GI50 (OVCAR-3 ovarian) of the same compound?
Answer: 1.23 µM

Question: And the TGI (OVCAR-3 ovarian)?
Answer: 2.53 µM

Question: What about the GI50 (SK-MEL-28 melanoma) of the same compound?
Answer: 1.29 µM

Question: What about the TGI (SK-MEL-28 melanoma) of the same compound?
Answer: 2.76 µM

Question: And the GI50 (U251 CNS)?
Answer: 0.933 µM

Question: What about the TGI (U251 CNS) of the same compound?
Answer: 2.71 µM

Question: What about the GI50 (RXF 393 renal) of the same compound?
Answer: 0.549 µM

Question: And the TGI (RXF 393 renal)?
Answer: 2.08 µM

Question: And the GI50 (K-562 leukemia)?
Answer: 0.297 µM

Question: What about the TGI (K-562 leukemia) of the same compound?
Answer: > 100 µM

Question: What about the GI50 (786-0 renal) of the same compound?
Answer: 1.13 µM

Question: What about the TGI (786-0 renal) of the same compound?
Answer: 2.89 µM

Question: And the GI50 (MDA-MB-435)?
Answer: 1.93 µM

Question: What about the TGI (MDA-MB-435) of the same compound?
Answer: 4.18 µM

Question: And the GI50 (SNB-75 CNS)?
Answer: 1.31 µM

Question: And the TGI (SNB-75 CNS)?
Answer: 4.39 µM

Question: What about the GI50 (SK-MEL-2 melanoma) of the same compound?
Answer: 2.14 µM

Question: And the TGI (SK-MEL-2 melanoma)?
Answer: 4.36 µM

Question: And the GI50 (MDA-MB-231 breast)?
Answer: 1.47 µM

Question: And the TGI (MDA-MB-231 breast)?
Answer: 2.93 µM

Question: What about the GI50 (HS 578T breast) of the same compound?
Answer: 1.77 µM

Question: What about the TGI (HS 578T breast) of the same compound?
Answer: 5.55 µM

Question: What about the GI50 (M14 melanoma) of the same compound?
Answer: 0.739 µM

Question: What about the TGI (M14 melanoma) of the same compound?
Answer: 2.77 µM

Question: And the GI50 (NCI-H460 lung)?
Answer: 2.73 µM

Question: And the TGI (NCI-H460 lung)?
Answer: 8.49 µM

Question: What about the GI50 (ACHN renal) of the same compound?
Answer: 0.346 µM

Question: And the TGI (ACHN renal)?
Answer: 1.35 µM

Question: And the GI50 (OVCAR-4 ovarian)?
Answer: 1.45 µM

Question: What about the TGI (OVCAR-4 ovarian) of the same compound?
Answer: 3.39 µM

Question: What about the GI50 (KM12 colon) of the same compound?
Answer: 1.46 µM

Question: And the TGI (KM12 colon)?
Answer: 3.32 µM

Question: And the GI50 (NCI-H226 lung)?
Answer: 2.01 µM

Question: What about the TGI (NCI-H226 lung) of the same compound?
Answer: 5.67 µM

Question: And the GI50 (A498 renal)?
Answer: 12.2 µM

Question: What about the TGI (A498 renal) of the same compound?
Answer: 26.5 µM

Question: And the GI50 (SF-268 CNS)?
Answer: 2.37 µM

Question: What about the TGI (SF-268 CNS) of the same compound?
Answer: 7.27 µM

Question: What about the GI50 (CAKI-1 renal) of the same compound?
Answer: 0.465 µM

Question: What about the TGI (CAKI-1 renal) of the same compound?
Answer: 1.8 µM

Question: And the GI50 (SK-OV-3 ovarian)?
Answer: 2.88 µM

Question: And the TGI (SK-OV-3 ovarian)?
Answer: 8.16 µM

Question: And the GI50 (SF-539 CNS)?
Answer: 0.539 µM

Question: And the TGI (SF-539 CNS)?
Answer: 1.71 µM

Question: What about the GI50 (UACC-257 melanoma) of the same compound?
Answer: 1.83 µM

Question: What about the TGI (UACC-257 melanoma) of the same compound?
Answer: 4.1 µM

Question: What about the GI50 (UACC-62 melanoma) of the same compound?
Answer: 1.39 µM

Question: And the TGI (UACC-62 melanoma)?
Answer: 2.81 µM

Question: And the GI50 (SNB-19 CNS)?
Answer: 3.44 µM

Question: What about the TGI (SNB-19 CNS) of the same compound?
Answer: 11.9 µM

Question: What about the GI50 (BT-549 breast) of the same compound?
Answer: 0.422 µM

Question: What about the TGI (BT-549 breast) of the same compound?
Answer: 1.78 µM

Question: And the GI50 (COLO 205 colon)?
Answer: 0.995 µM

Question: What about the TGI (COLO 205 colon) of the same compound?
Answer: 2.66 µM

Question: And the GI50 (PC-3 prostate)?
Answer: 0.325 µM

Question: What about the TGI (PC-3 prostate) of the same compound?
Answer: 1.94 µM

Question: What about the GI50 (SW-620 colon) of the same compound?
Answer: 0.354 µM

Question: What about the TGI (SW-620 colon) of the same compound?
Answer: 1.54 µM

Question: And the GI50 (IGROV1 ovarian)?
Answer: 1.81 µM

Question: What about the TGI (IGROV1 ovarian) of the same compound?
Answer: 3.86 µM

Question: And the GI50 (HCT-15 colon)?
Answer: 1.1 µM

Question: What about the TGI (HCT-15 colon) of the same compound?
Answer: 2.92 µM

Question: What about the GI50 (SN12C renal) of the same compound?
Answer: 1.29 µM

Question: And the TGI (SN12C renal)?
Answer: 3.33 µM

Question: And the GI50 (HOP-62 NSCLC)?
Answer: 3.53 µM

Question: And the TGI (HOP-62 NSCLC)?
Answer: 13.1 µM

Question: And the GI50 (RPMI-8226 leukemia)?
Answer: 0.434 µM

Question: And the TGI (RPMI-8226 leukemia)?
Answer: > 100 µM

Question: And the GI50 (SK-MEL-5 melanoma)?
Answer: 1.58 µM

Question: And the TGI (SK-MEL-5 melanoma)?
Answer: 2.93 µM

Question: What about the GI50 (OVCAR-8 ovarian) of the same compound?
Answer: 2.27 µM

Question: What about the TGI (OVCAR-8 ovarian) of the same compound?
Answer: 9.4 µM

Question: What about the GI50 (LOX IMVI melanoma) of the same compound?
Answer: 0.455 µM

Question: And the TGI (LOX IMVI melanoma)?
Answer: 1.68 µM

Question: What about the GI50 (T-47D breast) of the same compound?
Answer: 0.496 µM

Question: What about the TGI (T-47D breast) of the same compound?
Answer: 2.33 µM

Question: What about the GI50 (HCC-2998 colon) of the same compound?
Answer: 1.71 µM

Question: And the TGI (HCC-2998 colon)?
Answer: 3.15 µM

Question: What about the GI50 (MCF7 breast) of the same compound?
Answer: 0.616 µM

Question: What about the TGI (MCF7 breast) of the same compound?
Answer: 2.53 µM

Question: And the GI50 (NCI-H23 lung)?
Answer: 1.14 µM

Question: And the TGI (NCI-H23 lung)?
Answer: 2.78 µM

Question: What about the GI50 (DU-145 prostate) of the same compound?
Answer: 3.38 µM

Question: And the TGI (DU-145 prostate)?
Answer: 11.7 µM

Question: What about the GI50 (OVCAR-5 ovarian) of the same compound?
Answer: 1.67 µM

Question: What about the TGI (OVCAR-5 ovarian) of the same compound?
Answer: 3.38 µM

Question: And the GI50 (EKVX NSCLC)?
Answer: 2.65 µM

Question: What about the TGI (EKVX NSCLC) of the same compound?
Answer: 8.4 µM

Question: And the GI50 (NCI-H522 lung)?
Answer: 0.363 µM

Question: What about the TGI (NCI-H522 lung) of the same compound?
Answer: 1.59 µM

Question: What about the GI50 (UO-31 renal) of the same compound?
Answer: 0.682 µM

Question: What about the TGI (UO-31 renal) of the same compound?
Answer: 2 µM

Question: What about the GI50 (NCI/ADR-RES ovarian) of the same compound?
Answer: 2.27 µM

Question: And the TGI (NCI/ADR-RES ovarian)?
Answer: 6.78 µM

Question: And the GI50 (HL-60(TB) leukemia)?
Answer: 0.415 µM

Question: And the TGI (HL-60(TB) leukemia)?
Answer: > 100 µM

Question: What about the GI50 (SR leukemia) of the same compound?
Answer: 0.546 µM

Question: What about the TGI (SR leukemia) of the same compound?
Answer: > 34.7 µM

Question: And the GI50 (HCT-116 colon)?
Answer: 0.466 µM

Question: And the TGI (HCT-116 colon)?
Answer: 5.29 µM

Question: And the GI50 (HT29 colon)?
Answer: 0.478 µM

Question: What about the TGI (HT29 colon) of the same compound?
Answer: 6.44 µM
